Our source for the IC50 values is patent US8993619B2, “Cyclic bridgehead ether DGAT1 inhibitors” (Novartis AG, priority 2012, dated 2015).

The target of experiment [1] is T1, DGAT1 in C2C12 cells (Mus musculus, UniProt Q9Z2A7).
T1 construct: endogenous in cells; host or cells: C2C12 mouse skeletal muscle cells
T1 sequence (Q9Z2A7 1-498): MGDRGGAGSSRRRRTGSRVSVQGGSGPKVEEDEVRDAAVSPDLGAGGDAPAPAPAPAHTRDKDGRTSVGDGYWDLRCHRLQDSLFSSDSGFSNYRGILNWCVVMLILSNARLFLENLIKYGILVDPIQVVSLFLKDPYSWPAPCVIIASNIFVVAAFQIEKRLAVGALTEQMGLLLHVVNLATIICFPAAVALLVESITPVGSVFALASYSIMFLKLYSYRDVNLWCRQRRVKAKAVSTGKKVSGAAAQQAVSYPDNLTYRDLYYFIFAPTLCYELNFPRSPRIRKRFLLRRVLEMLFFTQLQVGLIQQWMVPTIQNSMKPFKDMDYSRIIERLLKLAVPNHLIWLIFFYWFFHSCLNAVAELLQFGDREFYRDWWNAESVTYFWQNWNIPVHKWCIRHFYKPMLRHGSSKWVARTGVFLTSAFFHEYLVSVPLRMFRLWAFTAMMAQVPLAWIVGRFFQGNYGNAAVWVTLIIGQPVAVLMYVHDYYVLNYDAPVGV
The experiment can be described thus: Cellular assay to measure activity of DGAT1 inhibitors in mammalian cells (C2C12). The format is cell-based. The following applies: C2C12 mouse skeletal muscle cells, 250 μM oleate, 2 h, LC/MS readout. The procedure: C2C12 cells are an immortal mouse skeletal muscle cell line showing an 8-fold enrichment form DGAT1 versus DGAT2. C2C12 cells were routinely cultured in 150 cm2 flasks with DMEM (25 mM glucose) containing 10% FBS, 4 m M L-glutamine, 100 U/ml penicillin and 100 μg/ml streptomycin (30 ml per flask), at 37° C., 5% CO2 and 95% humidity. All studies were performed on cells at passage 10 or less.
C2C12 cells were seeded in 96-well plates in DMEM containing […] glucose and 10% FBS, 18 h (at 37° C.) prior to assay (all wells of the plate are used). […] Compounds were added at 1:3 dilution, 11 points and DMSO control, the starting concentration was usually 40 μM. Each point was dosed in quadruplicate allowing 2 compounds to be dosed per plate. The medium was removed at the end of the incubation and 200 μl/well of 1-butanol added. The 1-butanol contained an internal standard, tripalmitolein (2 μM). The plates were sealed with an adhesive plate sealer and left at room temperature for at least 30 min, then spun down at 209×g for 5 min.
Butanolic extracts were transferred to 384-well LC-MS plates (80 μl/well) and the plate heatsealed with a foil plate sealer. The 384-well plates containing sample were spun down at 209×g for 5 min prior to loading on the LC-MS.
Where indicated, tripalmitolein was used as an internal standard to control for instrument variation. HPLC conditions as above.

In experiment [2] the target is T2, human (His)6DGAT1 (Homo sapiens, UniProt O75907).
T2 construct: made in house; host or cells: Sf9 insect cells (membrane preparation)
T2 sequence (O75907 1-488): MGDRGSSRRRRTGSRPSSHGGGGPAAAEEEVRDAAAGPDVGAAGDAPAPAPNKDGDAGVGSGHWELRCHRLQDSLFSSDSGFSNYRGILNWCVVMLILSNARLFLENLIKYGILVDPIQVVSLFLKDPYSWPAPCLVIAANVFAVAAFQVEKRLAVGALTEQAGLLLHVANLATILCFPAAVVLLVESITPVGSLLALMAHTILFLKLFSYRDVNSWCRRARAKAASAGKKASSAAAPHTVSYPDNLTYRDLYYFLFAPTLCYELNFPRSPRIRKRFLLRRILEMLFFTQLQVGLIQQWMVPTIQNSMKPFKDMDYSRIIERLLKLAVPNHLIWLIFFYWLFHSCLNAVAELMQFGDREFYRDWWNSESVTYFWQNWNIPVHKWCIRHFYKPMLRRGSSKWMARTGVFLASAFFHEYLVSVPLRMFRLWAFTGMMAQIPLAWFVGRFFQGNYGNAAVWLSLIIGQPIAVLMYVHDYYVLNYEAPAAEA
The experiment can be described thus: DGAT1 Inhibition Assay. Type of experiment: biochemical. The following applies: membrane preparation from Sf9 cells overexpressing human (His)6DGAT1; LC/MS/MS readout. The procedure:
The enzyme preparation used in this assay is a membrane preparation from Sf9 cells overexpressing human (His)6DGAT1. During all steps samples were chilled to 4° C. Sf9 cells expressing human (His)6DGAT1 were thawed at room temperature and re-suspended at a 10:1 ratio (mL buffer/g of cells) in 50 mM HEPES, 1× Complete Protease Inhibitor, pH 7.5. The re-suspended pellet was homogenized for 1 min using a Brinkman PT 10/35 homogenizer with a 20 mm generator. Cells were lysed using Avestin Emulsiflex (chilled to 4° C.) at 10000-15000 psi. Lysate was centrifuged at 100,000×g for 1 h at 4° C. Supernatant was removed and pellets were re-suspended in 50 mM HEPES, 1× Complete Protease Inhibitor, pH 7.5 at ⅙ the volume of supernatant. Re-suspended pellets were pooled and homogenized with 10 strokes of a Glas-Col motor driven teflon pestle on setting 70. The protein concentration of the membrane preparation was quantified using BCA protein assay with 1% SDS. The membrane preparation was aliquoted, frozen on dry ice, and stored at −80° C.
For 50 mL, 25 mL of 0.2 M HEPES stock buffer, 0.5 mL of 1 M MgCl2 ([…]), and 24.5 mL of milli-Q H2O are added to the 55 mL Wheaton Potter-Elvehjem homogenizer. Enzyme preparation (0.1 mL) is added to buffer and the mixture is homogenized with 5 strokes on ice using the Glas-Col variable speed homogenizer system on setting 70.
For 50 mL, 0.5 mL 10 mM diolein is added to 9.5 mL of EtOH in a 50 mL Falcon screw cap conical centrifuge tube. Five mL of 10 mM sodium acetate pH 4.5 is added followed by 0.5 mL of 10 mM oleoyl-CoA. Finally, the remaining 4.5 mL of 10 mM sodium acetate pH 4.5 is added followed by 30 mL of milli-Q H20. The solution should be gently agitated by hand to induce mixing. The final concentrations of EtOH and sodium acetate are 20% and 2 mM, respectively.
Dry compounds are dissolved in the appropriate volume of DMSO to a final concentration of 10 mM. […] All dilutions are performed in DMSO in a Greiner 384-well microplate. • 1. 2 μL of compound in DMSO is added to the appropriate wells. […] 25 μL of enzyme mix is added to all wells and plate(s) are incubated for 10 min at RT. • 3. […] Plate(s) are vortexed using Troemner multi-tube vortexer (setting 7 for 10 sec). • 4. 25 μL of substrate mix is added to all wells. Plate(s) are vortexed using Troemner multi-tube vortexer (setting 7 for 10 sec). Plate(s) are incubated for 30 min at RT. • 5. 10 μL of 20% acetic acid quench is added to all wells. Plate(s) are vortexed using Troemner multi-tube vortexer (setting 7 for 10 sec). • 6. 50 μL of 1-butanol w/ glyceryl tripalmitoleate internal standard is added to all wells. • 7. Plate(s) are sealed with super pierce strong plate sealer using the thermo-sealer. • 8. Plate(s) are vortexed using Troemner multi-tube vortexer (setting 10 for 5 min). • 9. Plate(s) are centrifuged at 162×g (1000 rpm for GH-3.8 rotor) for 5 min using Beckman GS-6R tabletop centrifuge.
Where indicated, tripalmitolein was used as an internal standard to control for instrument variation.
Column: Thermo Betabasic 4, 2.1×20 mm
Solvent: 10 mM Ammonium Formate, 0.1% Formic Acid, 2% water, 98% Methanol
Isocratic run 0.5 ml per minute
Data is converted to % inhibition prior to curve fitting using the following equation: […]

For orientation: IC50 means the concentration needed to halve the response being measured. A high value points to weaker potency.

In the case of `CC(C)(C)c1nnc(Nc2ccc(-c3ccc(C45CCC(CC(=O)O)(CC4)OC5)cc3)nc2)o1` [Example 1, 2-(4-(4-(5-(5-tert-butyl-1,3,4-oxadiazol-2-ylamino)pyridin-2-yl)phenyl)-2-oxabicyclo[2.2.2]octan-1-yl)acetic acid], the figures for the IC50 in experiment [1] and in experiment [2] were 288 nM and 345 nM, respectively. The matching figures for `O=C(O)CC12CCC(c3ccc(-c4ccc(Nc5nnc(C6CCC6)s5)cn4)cc3)(CC1)CO2` [Example 3, 2-(4-(4-(5-((5-cyclobutyl-1,3,4-thiadiazol-2-yl)amino)pyridin-2-yl)phenyl)-2-oxabicyclo[2.2.2]octan-1-yl)acetic acid]: 15 nM and 53.5 nM.

Take `O=C(O)CC12CCC(c3ccc(-c4cnc(Nc5nnc(C6CCC6)s5)nc4)cc3)(CC1)CO2` [Example 4, 2-(4-(4-(2-(5-cyclobutyl-1,3,4-thiadiazol-2-ylamino)pyrimidin-5-yl)phenyl)-2-oxabicyclo[2.2.2]octan-1-yl)acetic acid]: the IC50 in experiment [1] turned out to be 2500 nM; in experiment [2] it was 14000 nM. The corresponding values for `O=C(O)CC12CCC(c3ccc(-c4ccc(Nc5nnc(C6CCC6)s5)nc4)cc3)(CC1)CO2` [Example 5, 2-(4-(4-(6-((5-cyclobutyl-1,3,4-thiadiazol-2-yl)amino)pyridin-3-yl)phenyl)-2-oxabicyclo[2.2.2]octan-1-yl)acetic acid] are 1240 nM and 375 nM. As to `O=C(O)CC12CCC(c3ccc(-c4ccc(Nc5nnc(C6CCC6)s5)cc4)cc3)(CC1)CO2` [Example 6, 2-(4-(4′-(5-cyclobutyl-1,3,4-thiadiazol-2-ylamino)biphenyl-4-yl)-2-oxabicyclo[2.2.2]octan-1-yl)acetic acid], the IC50 in experiment [1] was 2 nM; in experiment [2], 12.5 nM. The matching figures for `CC(C)(C)c1nnc(Nc2ccc(-c3ccc(C45CCC(CC(=O)O)(CC4)OC5)cc3)cc2)o1` [Example 8, 2-(4-(4′-(5-tert-butyl-1,3,4-oxadiazol-2-ylamino)biphenyl-4-yl)-2-oxabicyclo[2.2.2]octan-1-yl)acetic acid]: 9 nM and 99 nM. `O=C(O)CC12CCC(c3ccc(-c4ccc(Nc5nnc(C6CC6)o5)cc4)cc3)(CC1)CO2` [Example 9, 2-(4-(4′-((5-cyclopropyl-1,3,4-oxadiazol-2-yl)amino)-[1,1′-biphenyl]-4-yl)-2-oxabicyclo[2.2.2]octan-1-yl)acetic acid]: the figures for the half-maximal inhibitory concentration (IC50) in experiment [1] (heading: DGAT1-C2C12 IC50) and in experiment [2] were 528 nM and 230000 nM, respectively. On to `Cc1nc(C(=O)Nc2ccc(-c3ccc(C45CCC(CC(=O)O)(CC4)OC5)cc3)cc2)c(C(F)(F)F)o1` [Example 10, 2-(4-(4′-(2-methyl-5-(trifluoromethyl)oxazole-4-carboxamido)-[1,1′-biphenyl]-4-yl)-2-oxabicyclo[2.2.2]octan-1-yl)acetic acid], for which the IC50 in experiment [1] is 56 nM; in experiment [2] it was 360 nM. As to `Cc1nc(C(=O)Nc2ccc(-c3ccc(C45CCC(CC(=O)O)(CC4)OC5)cc3)nc2)c(C(F)(F)F)o1` [Example 12, 2-(4-(4-(5-(2-methyl-5-(trifluoromethyl)oxazole-4-carboxamido)pyridin-2-yl)phenyl)-2-oxabicyclo[2.2.2]octan-1-yl)acetic acid], the midpoint of inhibition in experiment [2], the IC50, lay at 878 nM.

For `CC(C)(C)c1cnc(Nc2ccc(-c3ccc(C45CCC(CC(=O)O)(CC4)OC5)cc3)nc2)o1` [Example 14, 2-(4-(4-(5-((5-(tert-butyl)oxazol-2-yl)amino)pyridin-2-yl)phenyl)-2-oxabicyclo[2.2.2]octan-1-yl)acetic acid], the 50% inhibitory concentration (IC50) in experiment [1] is 108 nM; in experiment [2], 130 nM. The matching figures for `CC(C)(C)c1cnc(Nc2ccc(-c3ccc(C45CCC(CC(=O)O)(CC4)OC5)cc3)cc2)o1` [Example 15, 2-(4-(4′-((5-(tert-butyl)oxazol-2-yl)amino)-[1,1′-biphenyl]-4-yl)-2-oxabicyclo[2.2.2]octan-1-yl)acetic acid]: 7 nM and 44 nM. For `CC(C)Cc1nnc(Nc2ccc(-c3ccc(C45CCC(CC(=O)O)(CC4)OC5)cc3)cc2)o1` [Example 16, 2-(4-(4′-((5-isobutyl-1,3,4-oxadiazol-2-yl)amino)-[1,1′-biphenyl]-4-yl)-2-oxabicyclo[2.2.2]octan-1-yl)acetic acid], the half-inhibitory concentration (IC50) in experiment [1] came to 38 nM; in experiment [2], 60 nM. The corresponding values for `CC(C)(C)Cc1nnc(Nc2ccc(-c3ccc(C45CCC(CC(=O)O)(CC4)OC5)cc3)cc2)o1` [Example 17, 2-(4-(4′-((5-neopentyl-1,3,4-oxadiazol-2-yl)amino)-[1,1′-biphenyl]-4-yl)-2-oxabicyclo[2.2.2]octan-1-yl)acetic acid] are 31 nM and 53 nM.

Take `CCc1nc(C)c(C(=O)Nc2ccc(-c3ccc(C45CCC(CC(=O)O)(CC4)CO5)cc3)cc2)o1` [Example 18, 2-(1-(4′-(2-ethyl-4-methyloxazole-5-carboxamido)-[1,1′-biphenyl]-4-yl)-2-oxabicyclo[2.2.2]octan-4-yl)acetic acid]: the IC50 in experiment [1] was 160 nM; in experiment [2] it was 2900 nM.
